According to EPA's ToxValDB 9.5:
“And” between values parts separate entries of the source, which are not always exact repeats. Identical values can stand only once.

Test system: Rattus norvegicus
Conditions: oral, gavage
[1] = developmental, duration: 24 days, M/F, Sprague-Dawley, generation: F1, F1: Whole Body: Pup Weight per Litter, PND1
[2] = reproduction developmental, duration: 24 days, F, Sprague-Dawley, generation: P0, P0: Whole Body: Clinical Signs
[3] = reproduction developmental, duration: 24 days, F, Sprague-Dawley, generation: P0, P0: Whole Body: Feed Consumption, Absolute + P0: Whole Body: Maternal Body Weight Change + P0: Whole Body: Mortality + P0: Whole Body: No. …
[4] = short-term, duration: 28 days, F, Wistar, Adrenal: Adrenal Gland Weight, Absolute + Adrenal: Adrenal Gland Weight, Relative + Kidney: Creatinine (CREAT) + Multi-Organ: Calcium (CA)
[5] = short-term, duration: 28 days, M, Wistar, Blood: Hematocrit (HCT) + Blood: Hemoglobin (HGB) + Kidney: Urea + Liver: Alkaline Phosphatase (ALP) + Liver: Liver, Enlarged + Multi-Organ…
[6] = short-term, duration: 28 days, M, Wistar, Liver: Liver Weight, Absolute + Multi-Organ: Glucose (GLU) + Multi-Organ: Potassium (K)
[7] = subchronic, duration: 90 days, F, Sprague-Dawley, Kidney: Calcium (CA) Excretion + Multi-Organ: White Blood Cell (WBC)
[8] = subchronic, duration: 90 days, M, Sprague-Dawley, Blood: Hematocrit (HCT) + Blood: Hemoglobin (HGB)
[9] = subchronic, duration: 90 days, M, Sprague-Dawley, Blood: Red Blood Cell (RBC) + Liver: Aspartate Aminotransferase (AST) + Multi-Organ: Prothrombin Time (PT)
[10] = reproduction developmental, F, Crl:CD(SD), generation: P0, P0: Endocrine: Adrenal: Adrenal Gland Histopathology + P0: Endocrine: Adrenal: Adrenal Gland Weight, Absolute + P0: Endocrine: Adrenal: …
[11] = reproduction developmental, F, Crl:CD(SD), generation: P0, P0: Hematologic: Multi-Organ: Activated Partial Thromboplastin Time (APTT) + P0: Hematologic: Multi-Organ: Hematocrit (HCT) + P0: …
[12] = reproduction developmental, M, Crl:CD(SD), generation: P0, P0: Endocrine: Adrenal: Adrenal Gland Histopathology + P0: Endocrine: Adrenal: Adrenal Gland Weight, Absolute + P0: Endocrine: Adrenal: …
[13] = reproduction developmental, M, Crl:CD(SD), generation: P0, P0: Hematologic: Multi-Organ: Activated Partial Thromboplastin Time (APTT) + P0: Hematologic: Multi-Organ: Hematocrit (HCT) + P0: …
[14] = short-term, duration: 10 days, M, Sprague-Dawley, Endocrine: Multi-Organ: Follicle Stimulating Hormone (FSH), Serum + Endocrine: Multi-Organ: Leuteinizing Hormone (LH), Serum + Endocrine: …
[15] = short-term, duration: 10 days, M, Sprague-Dawley, Endocrine: Multi-Organ: Testosterone (T), Serum + Reproductive: Epididymis: Epididymis Weight, Absolute + Reproductive: Epididymis: …

`O=C([O-])C(F)(F)C(F)OC(F)(F)C(F)(F)C(F)(F)OC(F)(F)F.[NH4+]` (stereo not given) [Ammonium 4,8-dioxa-3H-perfluorononanoate] was tested, and the NOAEL (developmental, duration: 24 days, M/F, Sprague-Dawley, generation: F1, F1: Whole Body: Dams with Stillborn Pups + F1: Whole Body: Delivered Litters + F1: Whole Body: Live Pups Born + F1: Whole Body: Mean Pups …) was 270 mg/kg-day, the LOAEL (developmental, duration: 24 days, M/F, Sprague-Dawley, generation: F1, F1: Whole Body: No Milk in Stomach + F1: Whole Body: Pup Weight per Litter, PND4 + F1: Whole Body: Pup Weight per Litter, PND6 + F1: Whole …) was 270 mg/kg-day and the LOAEL [1] was 90 mg/kg-day. It also gave an NOAEL [1] of 30 mg/kg-day, an NOAEL (developmental, duration: 24 days, M/F, Sprague-Dawley, generation: F1, F1: Whole Body: Pup Weight per Litter, PND4 + F1: Whole Body: Pup Weight per Litter, PND6 + F1: Whole Body: Survival, PND1 + F1: Whole Body…) of 90 mg/kg-day and an NOAEL (reproduction developmental, duration: 24 days, F, Sprague-Dawley, generation: P0, P0: Uterus: Resorptions, Early + P0: Whole Body: Feed Consumption, Absolute + P0: Whole Body: Length of Gestation + P0: Whole Body: Length …) of 270 mg/kg-day. For the same molecule, the LOAEL [2] was 90 mg/kg-day, the NOAEL [2] was 30 mg/kg-day and the LOAEL [3] was 270 mg/kg-day. The NOAEL [3] was 90 mg/kg-day, the LOAEL [4] was 100 mg/kg-day and the NOAEL [4] was 30 mg/kg-day. For the same molecule, the NOAEL (short-term, duration: 28 days, F, Wistar, Blood: Activated Partial Thromboplastin Time (APTT) + Blood: Albumin/Globulin (A/G) Ratio + Blood: Hematocrit (HCT) + Blood: Hemoglobin (HGB…) was 100 mg/kg-day, the NOAEL (short-term, duration: 28 days, M, Wistar, Adrenal: Adrenal Gland Weight, Absolute + Adrenal: Adrenal Gland Weight, Relative + Blood: Activated Partial Thromboplastin Time (APTT) + …) was 100 mg/kg-day and the LOAEL [5] was 100 mg/kg-day. It also gave an NOAEL [5] of 30 mg/kg-day, an LOAEL (short-term, duration: 28 days, M, Wistar, Liver: Hepatocellular Hypertrophy + Liver: Liver Weight, Relative + Liver: Total Bilirubin (TBILI)) of 10 mg/kg-day and an LOAEL [6] of 30 mg/kg-day. It also gave an NOAEL [6] of 10 mg/kg-day, an NOAEL (subchronic, duration: 90 days, F, Sprague-Dawley, Adrenal: Adrenal Gland Weight, Absolute + Adrenal: Adrenal Gland Weight, Relative + Blood: Activated Partial Thromboplastin Time (APTT) + …) of 100 mg/kg-day and an LOAEL [7] of 100 mg/kg-day. It also gave an NOAEL [7] of 30 mg/kg-day, an NOAEL (subchronic, duration: 90 days, M, Sprague-Dawley, Adrenal: Adrenal Gland Weight, Absolute + Adrenal: Adrenal Gland Weight, Relative + Blood: Activated Partial Thromboplastin Time (APTT) + …) of 10 mg/kg-day and an LOAEL [8] of 3 mg/kg-day. The NOAEL [8] was 1 mg/kg-day, the LOAEL [9] was 10 mg/kg-day and the NOAEL [9] was 3 mg/kg-day.
In the case of `O=C(O)C(F)(F)C(F)(F)C(F)(F)C(F)(F)C(F)(F)C(F)(F)C(F)(F)C(F)(F)C(F)(F)C(F)(F)C(F)(F)C(F)(F)C(F)(F)F` [Perfluorotetradecanoic acid], the NOAEL (developmental, F, Crl:CD(SD), generation: F1, F1: Developmental: Whole Body: Body Weight, Birth + F1: Developmental: Whole Body: Body Weight, Pup, PND 1 + F1: Developmental: Whole Body: …) was 1 mg/kg-day and 3 mg/kg-day, the NOAEL (developmental, M/F, Crl:CD(SD), generation: F1, F1: Developmental: Whole Body: Litter Size + F1: Developmental: Whole Body: Male Pups per Pups Sexed + F1: Developmental: Whole Body: Mean …) was 1 mg/kg-day and 3 mg/kg-day and the NOAEL (developmental, M, Crl:CD(SD), generation: F1, F1: Developmental: Whole Body: Body Weight, Birth + F1: Developmental: Whole Body: Body Weight, Pup, PND1 + F1: Developmental: Whole Body: …) was 1 mg/kg-day and 3 mg/kg-day. The LOAEL (reproduction developmental, F, Crl:CD(SD), generation: P0, P0: Cardiovascular: Heart: Heart Histopathology + P0: Cardiovascular: Heart: Heart Weight, Absolute + P0: Cardiovascular: Heart: Heart …) was 3 mg/kg-day, the LOAEL [10] was 3 mg/kg-day and the NOAEL [10] was 1 mg/kg-day. For the same molecule, the LOAEL [11] was 10 mg/kg-day, the NOAEL [11] was 3 mg/kg-day and the LOAEL (reproduction developmental, M, Crl:CD(SD), generation: P0, P0: Cardiovascular: Heart: Heart Histopathology + P0: Cardiovascular: Heart: Heart Weight, Absolute + P0: Cardiovascular: Heart: Heart …) was 3 mg/kg-day. It also gave an LOAEL [12] of 3 mg/kg-day, an NOAEL [12] of 1 mg/kg-day and an LOAEL [13] of 10 mg/kg-day. The NOAEL [13] was 3 mg/kg-day, the LOAEL [14] was 20 mg/kg-day and the NOAEL [14] was 10 mg/kg-day. It also gave an NOAEL (short-term, duration: 10 days, M, Sprague-Dawley, Endocrine: Multi-Organ: Follicle Stimulating Hormone (FSH), Serum + Endocrine: Multi-Organ: Leuteinizing Hormone (LH), Serum + Whole Body: …) of 20 mg/kg-day, an LOAEL [15] of 20 mg/kg-day and an NOAEL [15] of 10 mg/kg-day.
